# Data reported in US8846947B2, “Benzimidazoles and related analogs as sirtuin modulators” (GlaxoSmithKline LLC, priority 2008, dated 2014).
# Read-outs that look alike come from different tables or passages of the source.
# Biological target: T1, SIRT1 (Homo sapiens, UniProt Q96EB6)
# T1 sequence (Q96EB6 1-747): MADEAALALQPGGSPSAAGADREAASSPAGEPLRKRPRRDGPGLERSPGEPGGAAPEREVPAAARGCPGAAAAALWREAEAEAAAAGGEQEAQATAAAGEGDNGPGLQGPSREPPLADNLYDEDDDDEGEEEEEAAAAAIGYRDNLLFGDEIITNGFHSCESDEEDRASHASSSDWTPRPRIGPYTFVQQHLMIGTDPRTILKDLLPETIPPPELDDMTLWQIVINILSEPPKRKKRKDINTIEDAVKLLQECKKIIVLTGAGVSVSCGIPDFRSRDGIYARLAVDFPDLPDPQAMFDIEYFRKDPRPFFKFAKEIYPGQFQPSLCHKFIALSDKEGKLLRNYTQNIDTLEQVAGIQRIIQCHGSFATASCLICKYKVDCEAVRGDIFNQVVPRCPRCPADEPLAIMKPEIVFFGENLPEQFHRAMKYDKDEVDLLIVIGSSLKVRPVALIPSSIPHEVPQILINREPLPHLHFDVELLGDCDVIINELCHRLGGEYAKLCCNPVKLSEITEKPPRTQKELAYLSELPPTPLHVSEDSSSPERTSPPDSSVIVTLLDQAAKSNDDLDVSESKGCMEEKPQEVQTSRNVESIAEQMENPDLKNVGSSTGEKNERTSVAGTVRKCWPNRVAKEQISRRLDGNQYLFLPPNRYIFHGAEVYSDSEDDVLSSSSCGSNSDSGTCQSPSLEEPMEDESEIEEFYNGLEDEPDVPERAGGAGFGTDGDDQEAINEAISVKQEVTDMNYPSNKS
# Assay: Mass spectrometry based SIRT1 deacetylase activation assay (acetylated p53-derived peptide substrate)
# Format: biochemical
# Excerpt: A mass spectrometry based assay was used to identify modulators of SIRT1 activity. The mass spectrometry based assay utilizes a peptide having 20 amino acid residues as follows: Ac-EE-K(biotin)-GQSTSSHSK(Ac)NleSTEG-K(5TMR)-EE-NH2 (SEQ ID NO: 1) wherein K(Ac) is an acetylated lysine residue and Nle is a norleucine. The peptide is labeled with the fluorophore 5TMR (excitation 540 nm/emission 580 nm) at the C-terminus. The sequence of the peptide substrate is based on p53 with several modifications. In addition, the methionine residue naturally present in the sequence was replaced with the norleucine because the methionine may be susceptible to oxidation during synthesis and purification.
# The mass spectrometry assay is conducted as follows: 0.5 μM peptide substrate and 120 μM βNAD^+ is incubated with 10 nM SIRT1 for 25 minutes at 25° C. in a reaction buffer (50 mM Tris-acetate pH 8, 137 mM NaCl, 2.7 mM KCl, 1 mM MgCl2, 5 mM DTT, 0.05% BSA). Test compounds may be added to the reaction as described above. […] After the 25 minute incubation with SIRT1, 10 μL of 10% formic acid is added to stop the reaction. Reactions are sealed and frozen for later mass spec analysis. Determination of the mass of the substrate peptide allows for precise determination of the degree of acetylation (i.e. starting material) as compared to deacetylated peptide (product).
# A control for inhibition of sirtuin activity is conducted by adding 1 μL of 500 mM nicotinamide as a negative control at the start of the reaction (e.g., permits determination of maximum sirtuin inhibition). A control for activation of sirtuin activity is conducted using 10 nM of sirtuin protein, with 1 μL of DMSO in place of compound, to determine the amount of deacetylation of the substrate at a given timepoint within the linear range of the assay. This timepoint is the same as that used for test compounds and, within the linear range, the endpoint represents a change in velocity.
# For the above assay, SIRT1 protein was expressed and purified as follows. […] The protein was expressed by induction with 1 mM IPTG as an N-terminal His-tag fusion protein at 18° C. overnight and harvested at 30,000×g. Cells were lysed with lysozyme in lysis buffer (50 mM Tris-HCl, 2 mM Tris[2-carboxyethyl]phosphine (TCEP), 10 μM ZnCl2, 200 mM NaCl) and further treated with sonication for 10 min for complete lysis. The protein was purified over a Ni-NTA column (Amersham) and fractions containing pure protein were pooled, concentrated and run over a sizing column (Sephadex S200 26/60 global). The peak containing soluble protein was collected and run on an Ion-exchange column (MonoQ). Gradient elution (200 mM-500 mM NaCl) yielded pure protein. This protein was concentrated and dialyzed against dialysis buffer (20 mM Tris-HCl, 2 mM TCEP) overnight. The protein was aliquoted and frozen at −80° C. until further use.
# Sirtuin modulating compounds that activated SIRT1 were identified using the assay described above and are shown below in Table 1. The EC1.5 values for the activating compounds are represented by A (EC1.5<1.0 uM), B (EC1.5 1-25 uM), C (EC1.5 >25 uM). The percent maximum fold activation is represented by A (Fold activation >200%) or B (Fold Activation <200%).
# [1] = 0.5 μM peptide substrate, 120 μM βNAD+, 10 nM SIRT1, 25 min at 25° C.
# [2] = 0.5 μM peptide substrate, 120 μM βNAD+, 10 nM SIRT1, 25 min at 25° C., read-out: EC1.5
# [3] = 0.5 μM peptide substrate, 120 μM βNAD+, 10 nM SIRT1, 25 minutes at 25° C.
Structure (SMILES),EC1.5,Fold Act. (percent maximum fold activation),Fold Act. (percent maximum fold activation) [1],EC1.5 [2],EC1.5 [3],Fold Act. (percent maximum fold activation) [3]
O=C(Nc1nccs1)c1cccc2[nH]c(-c3cc(F)cc(F)c3)nc12 [Compound 213],B (EC1.5 1-25 uM),A (Fold activation >200%),,,,
CC(C)N1CCN(c2cccc(-c3nc4c(C(=O)Nc5ccccn5)cccc4[nH]3)c2)CC1 [Compound 530],,,A (Fold activation >200%),< 1000 nM,,
O=C(Nc1ncc(F)s1)c1cccc2[nH]c(-c3ccc(Cl)cc3C(F)(F)F)nc12 [Compound 321],A (EC1.5<1.0 uM),A (Fold activation >200%),,,,
O=C(Nc1cccc2[nH]c(-c3ccc(Cl)cc3C(F)(F)F)nc12)c1cnccn1 [Compound 419],,,A (Fold activation >200%),1000 to 25000 nM,,
O=C(Nc1nccs1)c1cccc2[nH]c(-c3c(F)cccc3C(F)(F)F)nc12 [Compound 264],B (EC1.5 1-25 uM),A (Fold activation >200%),,,,
O=C(Nc1cccnn1)c1cccc2[nH]c(-c3ccc(Cl)cc3C(F)(F)F)nc12 [Compound 432],,,A (Fold activation >200%),< 1000 nM,,
O=C(Nc1nccs1)c1cccc2[nH]c(-c3cccc(N4CCCC4)c3)nc12 [Compound 236],B (EC1.5 1-25 uM),B (Fold Activation <200%),,,,
Cc1nc(-c2ccccc2)c(-c2nc3c(C(=O)Nc4nccs4)cccc3[nH]2)s1 [Compound 368],A (EC1.5<1.0 uM),A (Fold activation >200%),,,,
Cc1cnc(NC(=O)c2cccc3[nH]c(-c4ccc(OC[C@@H](O)CO)cc4C(F)(F)F)nc23)s1 [Compound 746],,,,,A (EC1.5<1.0 uM),A (Fold activation >200%)
O=C(Nc1cccc(OC[C@H](O)CO)c1)c1cccc2[nH]c(-c3cccc(F)c3)nc12 [Compound 781],,,,,A (EC1.5<1.0 uM),A (Fold activation >200%)
O=C(Nc1nccs1)c1cccc2[nH]c(-c3ccc(Cl)cc3C(F)F)nc12 [Compound 562],,,A (Fold activation >200%),< 1000 nM,,
Cc1cc(NC(=O)c2cccc3[nH]c(-c4ccc(F)cc4C(F)(F)F)nc23)n(C)n1 [Compound 375],A (EC1.5<1.0 uM),A (Fold activation >200%),,,,
Cc1cnc(NC(=O)c2cncc3[nH]c(-c4ccc(N5CCCC5)cc4C(F)F)nc23)s1 [Compound 800],,,,,A (EC1.5<1.0 uM),A (Fold activation >200%)
Cc1cc(NC(=O)c2cccc3[nH]c(-c4ccc(Cl)cc4C(F)(F)F)nc23)n(C)n1 [Compound 356],A (EC1.5<1.0 uM),A (Fold activation >200%),,,,
O=C(Nc1nccs1)c1cccc2[nH]c(-c3ccccc3N3CCOCC3)nc12 [Compound 256],B (EC1.5 1-25 uM),A (Fold activation >200%),,,,
O=C(Nc1cccc(OCC(O)CO)c1)c1cccc2[nH]c(-c3ccc(F)cc3C(F)(F)F)nc12 (stereo not drawn) [Compound 705],,,,,A (EC1.5<1.0 uM),A (Fold activation >200%)
CS(=O)(=O)c1cc(Cl)ccc1-c1nc2c(C(=O)Nc3nccs3)cccc2[nH]1 [Compound 520],,,A (Fold activation >200%),1000 to 25000 nM,,

Structure (SMILES),EC1.5,Fold Act. (percent maximum fold activation),Fold Act. (percent maximum fold activation) [1],EC1.5 [2],EC1.5 [3],Fold Act. (percent maximum fold activation) [3]
Cc1nc(NC(=O)c2cccc3[nH]c(-c4ccc(F)cc4C(F)(F)F)nc23)sc1C [Compound 358],A (EC1.5<1.0 uM),A (Fold activation >200%),,,,
O=C(Nc1ccccn1)c1cc(N2CCOCC2)cc2[nH]c(-c3ccc(F)cc3C(F)F)nc12 [Compound 750],,,,,A (EC1.5<1.0 uM),A (Fold activation >200%)
CC1(C)Cc2cc(-c3nc4c(C(=O)Nc5ccccn5)cccc4[nH]3)ccc2O1 [Compound 498],,,B (Fold Activation <200%),1000 to 25000 nM,,
O=C(Nc1nccs1)c1cccc2[nH]c(-c3cccc(Cl)c3F)nc12 [Compound 257],B (EC1.5 1-25 uM),A (Fold activation >200%),,,,
O=C(Nc1nccs1)c1cccc2[nH]c(-c3ccccc3OCCN3CCCC(F)(F)C3)nc12 [Compound 611],,,,,C (EC1.5 >25 uM),B (Fold Activation <200%)
O=C(Nc1ccccn1)c1cccc2[nH]c(-c3cc(Cl)ccc3OCCN3CCOCC3)nc12 [Compound 502],,,A (Fold activation >200%),1000 to 25000 nM,,
O=C(Nc1cccnc1)c1cncc2[nH]c(-c3ccc(Cl)cc3C(F)(F)F)nc12 [Compound 650],,,,,A (EC1.5<1.0 uM),A (Fold activation >200%)
Cc1cnc(NC(=O)c2cncc3nc(-c4ccc(OC[C@H](O)CO)cc4C(F)F)[nH]c23)s1 [Compound 809],,,,,A (EC1.5<1.0 uM),A (Fold activation >200%)
O=C(NCc1ccccn1)c1cccc2[nH]c(-c3ccc(F)cc3C(F)(F)F)nc12 [Compound 435],,,B (Fold Activation <200%),1000 to 25000 nM,,
CN1CCN(c2cccc(-c3nc4c(C(=O)Nc5nccs5)cccc4[nH]3)c2)CC1 [Compound 527],,,A (Fold activation >200%),< 1000 nM,,
Cc1nc(C)c(-c2nc3c(C(=O)Nc4nc(CN5CCOCC5)cs4)cccc3[nH]2)s1 [Compound 848],,,,,A (EC1.5<1.0 uM),A (Fold activation >200%)
Cc1cc(C)nc(NC(=O)c2cccc3[nH]c(-c4ccc(Cl)cc4C(F)(F)F)nc23)c1 [Compound 394],A (EC1.5<1.0 uM),A (Fold activation >200%),,,,
Cc1nc(NC(=O)c2cccc3[nH]c(-c4cccc(C(F)(F)F)c4)nc23)sc1C [Compound 274],A (EC1.5<1.0 uM),A (Fold activation >200%),,,,
O=C(NC1CCNCC1)c1cccc2[nH]c(-c3cc(F)ccc3C(F)(F)F)nc12 [Compound 438],,,B (Fold Activation <200%),> 25000 nM,,
O=C(Nc1cccc(OC[C@H](O)CO)c1)c1cccc2[nH]c(-c3ccncc3)nc12 [Compound 783],,,,,A (EC1.5<1.0 uM),A (Fold activation >200%)
O=C(Nc1ccc(OC[C@@H](O)CO)cc1)c1cccc2[nH]c(-c3cccc(N4CCCC4)c3)nc12 [Compound 788],,,,,A (EC1.5<1.0 uM),A (Fold activation >200%)
